Assay results published in patent US5679684A, “Hydroxyalkylammonium-pyrimidines and nucleoside derivatives, useful as inhibitors of inflammatory cytokines” (Macronex, Inc., priority 1995, dated 1997).

How the values were obtained:
latent HIV-1 = conditions: monocytoid (U1) cell line; cited from earlier work
HIV-1 = conditions: advanced HIV-1 infection and AIDS; cited from earlier work
TNF-α [1] = conditions: associated with HIV-1 inhibition; cited from earlier work
PAF = assay: Monocyte release of PAF; format: cell-based, human; parameters: key: NE: No effect; NT: Not tested; INHIB: Inhibition; STIM: Stimulation; IC20: 20% Inhibitory Concentration; EC50: 50% Effective Concentration; TC: Tolerated Concentration; conditions: zymosan A stimulated
Description: (§1) Monocyte Release of PGE2, LTB4, and PAF:
(§2) Monocytes isolated as described above, were washed and resuspended in RPM1 containing 5 mg/ml HSA at 2×10^6 cells/ml and added to wells of a 48-well plates. The cells were allowed to adhere for 2 hours then washed in HBSS-BSA-HEPES buffer. Test materials were added at four concentrations (175 μl) for 60 minutes; then the monocytes were stimulated by addition of […] zymosan A (175 μl of 2× desired final concentration added). Supernatant medium was collected from the wells after 90 minutes incubation and stored at -20° C. until assayed. Supernatants were assayed for PGE2, LTB4 or PAF using specific scintillation proximity assays (SPA).

IL-1β = assay: Monocyte release of IL-1β; format: cell-based, human; parameters: key to EFFECT: NE: No effect; NT: Not tested; INHIB: Inhibition; STIM: Stimulation; IC20: 20% Inhibitory Concentration; EC50: 50% Effective Concentration; TC: Tolerated Concentration; conditions: IL1β
Tissue Factor = assay: Monocyte procoagulant activity (Tissue Factor); format: cell-based, human; parameters: key to EFFECT: NE: No effect; NT: Not tested; INHIB: Inhibition; STIM: Stimulation; IC20: 20% Inhibitory Concentration; EC50: 50% Effective Concentration; TC: Tolerated Concentration
Description: Monocyte Procoagulant Activity (Tissue Factor):
The adhered monocytes remaining on the 48-well tissue culture plates after removal of the supernatants above, are used to measure levels of Tissue Factor production. The cells are solubilized overnight at 4° C. in 10% Triton-X100 in PBS, diluted to 1% Triton-X100 with PBS then assayed by ELISA for Tissue Factor.

monocytes = assay: Inhibition of monocyte chemotaxis; format: cell-based, human; parameters: key to EFFECT: NE: No effect; NT: Not tested; INHIB: Inhibition; STIM: Stimulation; IC20: 20% Inhibitory Concentration; EC50: 50% Effective Concentration; TC: Tolerated Concentration; conditions: chemoattractant FMLP
Description: Inhibition of Monocyte Chemotaxis:
Monocytes are prepared as previously described, and resuspended at 5×10^6 cells/ml in HBSS, 0.1% BSA (HBSS-BSA). Fluorophore labeling of the cells is carried out by adding calcein-AM to the above cells at a final concentration of 2 μM. Following a 30 minute incubation at 37° C. in humidified 5% CO2, the labeled monocytes are washed twice and incubated in a range of dilutions of the test materials for 60 minutes at 37° C. in humidified 5% CO2. The pre-treated, calcein-AM loaded cells are then added in triplicate to the wells of the top compartment of a NeuroProbe (Cabin, John, M.D.) 96-well chemotaxis chamber (2×10^5 cells/well) and permitted to migrate through a 10 μm thick bonded polycarbonate membrane (5 μm porosity; NeuroProbe Inc; Cabin, John, M.D.) towards the wells of the lower compartment containing the chemoattractant (FMLP) at 5×10^-9 M. After a 90 minute incubation at 37° C. in a humidified chamber, the wells of the upper chambers are aspirated, the monocyte-associated membrane removed, non-migrating cells wiped off and the filters permitted to air dry to 15 minutes. The number of cells migrating through the membranes are quantified by measuring the fluorescent intensity of the migrating cells in a fluorescent microplate reader (CytoFluor 2300, Millipore Corp., Bedford, Mass.)

LTB4 = assay: Monocyte release of LTB4; format: cell-based, human; parameters: key: NE: No effect; NT: Not tested; INHIB: Inhibition; STIM: Stimulation; IC20: 20% Inhibitory Concentration; EC50: 50% Effective Concentration; TC: Tolerated Concentration; conditions: zymosan A stimulated
Description: as §1, §2

TNF-α [2] = assay: Monocyte release of TNF-α; format: cell-based, human; parameters: key to EFFECT: NE: No effect; NT: Not tested; INHIB: Inhibition; STIM: Stimulation; IC20: 20% Inhibitory Concentration; EC50: 50% Effective Concentration; TC: Tolerated Concentration; conditions: TNFα
LDH = format: cell-based; parameters: key to EFFECT: NE: No effect; NT: Not tested; INHIB: Inhibition; STIM: Stimulation; IC20: 20% Inhibitory Concentration; EC50: 50% Effective Concentration; TC: Tolerated Concentration
MTS = format: cell-based; parameters: key to EFFECT: NE: No effect; NT: Not tested; INHIB: Inhibition; STIM: Stimulation; IC20: 20% Inhibitory Concentration; EC50: 50% Effective Concentration; TC: Tolerated Concentration
[3] = Endotoxin testing (kinetic chromogenic procedure); parameters: key: NE: No effect; NT: Not tested; INHIB: Inhibition; STIM: Stimulation; IC20: 20% Inhibitory Concentration; EC50: 50% Effective Concentration; TC: Tolerated Concentration
Description: All batches of media and reagents are tested to ensure they are free of endotoxins before they are used. This laboratory uses a kinetic chromogenic procedure (Kinetic QCL; Whittaker Bioproducts) for the determination of endotoxin, performed using the Thermomax Plate reader from Molecular Devices. The plate reader incorporates dedicated software for the computer analysis of all data. Samples are tested following the manufacturer's instructions, at 3 different concentrations, in triplicate. Reference Standard Endotoxin (United States Pharmacopeia) obtained at a concentration of 10,000 endotoxin units/ml, is used to generate a standard curve to determine the actual concentration of endotoxin in the samples (sensitivity =/>0.005 endotoxin units/ml).

IL-8 = assay: Monocyte release of IL-8; format: cell-based, human; parameters: key to EFFECT: NE: No effect; NT: Not tested; INHIB: Inhibition; STIM: Stimulation; IC20: 20% Inhibitory Concentration; EC50: 50% Effective Concentration; TC: Tolerated Concentration; conditions: IL8
GM-CSF = assay: Monocyte release of GM-CSF; format: cell-based, human; parameters: key to EFFECT: NE: No effect; NT: Not tested; INHIB: Inhibition; STIM: Stimulation; IC20: 20% Inhibitory Concentration; EC50: 50% Effective Concentration; TC: Tolerated Concentration
superoxide anion = assay: Monocyte superoxide anion (O2) release; format: cell-based, human; parameters: key to EFFECT: NE: No effect; NT: Not tested; INHIB: Inhibition; STIM: Stimulation; IC20: 20% Inhibitory Concentration; EC50: 50% Effective Concentration; TC: Tolerated Concentration
Description: Monocyte Superoxide Anion (O2) Release:
Monocytes are prepared as described above and resuspended to 5×10^6 /ml in HBSS containing 10 Mm HEPES, 2 g/l glucose, 0.1% BSA, Ph 7.2. To each well of a 96-well flat bottom, tissue culture plate is added 100 μl of cell suspension and 100 μl of buffer or test materials. Samples are run in quadruplicate. The plate is incubated for 60 min. at 37° C. followed by the addition of 50 μl of buffer containing cytochrome C (5 mg/ml; type VI, horse heart, Sigma) and bovine liver catalase (1500 U/ml; Sigma) in the presence of zymosan A ([…]; 750 μg/ml; Sigma). The plate is incubated an additional 120 minutes at 37° C. during which the absorbance at 550 nm is monitored using a microplate reader incorporating dedicated software for kinetic analysis (Molecular Devices; Menlo Park, Calif.).

[4] = test system: human peripheral blood mononuclear cells (PBMC); assay: PBMC proliferation to mitogens (PHA); format: cell-based; parameters: key: NE: No effect; NT: Not tested; INHIB: Inhibition; STIM: Stimulation; IC20: 20% Inhibitory Concentration; EC50: 50% Effective Concentration; TC: Tolerated Concentration
Description: (§3) Human Peripheral Blood Mononuclear Cell (PBMC) Isolation:
(§4) Venous blood is obtained from healthy volunteers and mixed with an equal volume of sterile isotonic saline/10 mM HEPES and placed into 50 ml conical polypropylene tubes in 30 ml aliquots. Each aliquot of diluted blood is underlaid with 20-25 ml of sterile Lymphocyte Separation Medium (LSM; Organon-Technika, Durham, N.C.). The tubes are centrifuged at 400 g for 40 minutes at room temperature. The mononuclear cells at the interface are removed and washed twice in sterile isotonic saline/10 mM HEPES followed by a wash in Hank's Balanced Salt Solution (HBSS) or RPMI without serum, depending on their intended use. Cell concentrations for each donor are determined by counting in a haematology and analyser (Serono-Baker).
PBMC Proliferation to Mitogens (PHA):
PBMC are adjusted to 4×10^6 /ml in complete medium. To each well of a 96 well flat bottom tissue culture plate (Falcon 3072) is added 50 μl of cell suspension. Test materials (diluted in complete medium to 2× the desired final concentration) are added in 100 μl volumes to each well. […] The contents of the wells are harvested onto glass fibre filters using a multiple automated sample harvester (Tomtec), and the incorporated […] determined by liquid scintillation spectrophotometry and represented an cpm (counts per minute) incorporated per well.

IL-6 = assay: Monocyte release of IL-6; format: cell-based, human; parameters: key to EFFECT: NE: No effect; NT: Not tested; INHIB: Inhibition; STIM: Stimulation; IC20: 20% Inhibitory Concentration; EC50: 50% Effective Concentration; TC: Tolerated Concentration; conditions: IL6
PGE2 = assay: Monocyte release of PGE2; format: cell-based, human; parameters: key: NE: No effect; NT: Not tested; INHIB: Inhibition; STIM: Stimulation; IC20: 20% Inhibitory Concentration; EC50: 50% Effective Concentration; TC: Tolerated Concentration; conditions: zymosan A stimulated
Description: as §1, §2

[5] = test system: human peripheral blood mononuclear cells (PBMC); assay: Two-way mixed lymphocyte reaction (MLR); format: cell-based; parameters: key: NE: No effect; NT: Not tested; INHIB: Inhibition; STIM: Stimulation; IC20: 20% Inhibitory Concentration; EC50: 50% Effective Concentration; TC: Tolerated Concentration
Description: as §3, §4
Two-Way Mixed Lymphocyte Reaction (MLR):
PBMC are prepared as described for the mitogen assays, but resuspended to 2×10^6 cells/ml in complete medium. Fifty μl of cell suspension from two different individuals is then added to each well of a 96-well flat bottom tissue culture plate. An additional 100 μl of complete medium, dexamethasone or test compounds are then added to each well, the plates are incubated for 6 days at 37° C., and then pulsed with ^3 H-thymidine and harvested as previously described.

O=C1CCC(N2C(=O)c3ccccc3C2=O)C(=O)N1 (centres unmarked) [Thalidomide]
activation of latent HIV-1 (latent HIV-1): suppress the activation of latent HIV-1 | inhibition of activation of virus in PBMC, patients (HIV-1): 16 out of 17 | agonist-induced TNF-α protein and mRNA production (TNF-α [1]): reduction

CCCCCCCCCCCCCCCC(=O)OCC[N+](C)(C)CCOCn1cc(C)c(=O)[nH]c1=O [Example 6, N,N-Dimethyl-N-2-(hexadecanoyloxy)ethyl-N-[N^1-(5-methyl-2,4-dioxopyrimidinyl)methoxyethyl]ammonium iodide]
EFFECT (PAF): NE | EC50 (IL-1β; Homo sapiens, Monocyte): 7.5 µM | EFFECT (IL-1β): INHIB | EFFECT (Tissue Factor): INHIB | EC50 (Tissue Factor; Homo sapiens, Monocyte): 4.3 µM | EC50 (monocytes; Homo sapiens, Monocyte): 47 µM | EFFECT (monocytes): INHIB | EFFECT (LTB4): NE | EC50 (TNF-α [2]; Homo sapiens, Monocyte): 5.5 µM | EFFECT (TNF-α [2]): INHIB | EFFECT (LDH): TC | MNTC (LDH; ldh assay, effect TC, read-out: Tolerated Concentration (EC50)): 100 µM | EFFECT (MTS): TC | MNTC (MTS; mts assay, effect TC, read-out: Tolerated Concentration (EC50)): 100 µM | EFFECT [3]: NE | EC50 (IL-8; Homo sapiens, Monocyte): 2.9 µM | EFFECT (IL-8): INHIB | EFFECT (GM-CSF): INHIB | EC50 (GM-CSF; Homo sapiens, Monocyte): 12.6 µM | EFFECT (superoxide anion): INHIB | EC50 (superoxide anion; Homo sapiens, Monocyte): 34 µM | EFFECT [4]: NE | EC50 (IL-6; Homo sapiens, Monocyte): 5.7 µM | EFFECT (IL-6): INHIB | EFFECT (PGE2): NE | EFFECT [5]: NE
